SMILES strings stand for the structures.

For one experiment, the target named is T1, human histamine H3 receptor (Homo sapiens, UniProt Q9Y5N1).
T1 construct: One μg supercoiled H3 receptor cDNA was added to the cells and mixed; expressed in transfected cells; membranes prepared from cell pellets
T1 sequence (Q9Y5N1 whole entry): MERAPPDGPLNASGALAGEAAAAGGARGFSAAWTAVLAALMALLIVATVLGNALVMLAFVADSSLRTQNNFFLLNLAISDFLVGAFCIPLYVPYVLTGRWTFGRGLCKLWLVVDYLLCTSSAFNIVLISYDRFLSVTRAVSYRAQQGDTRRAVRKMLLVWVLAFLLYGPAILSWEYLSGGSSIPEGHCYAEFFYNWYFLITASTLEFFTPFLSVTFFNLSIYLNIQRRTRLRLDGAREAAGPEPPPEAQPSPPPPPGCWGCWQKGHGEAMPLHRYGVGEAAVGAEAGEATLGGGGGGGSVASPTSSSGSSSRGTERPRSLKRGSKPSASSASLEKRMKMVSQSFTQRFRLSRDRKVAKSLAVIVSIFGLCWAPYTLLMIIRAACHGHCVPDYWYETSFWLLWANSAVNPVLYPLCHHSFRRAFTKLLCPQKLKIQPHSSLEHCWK
The experiment can be described thus: [3H]-N-methylhistamine binding assay. Particulars: membranes of histamine H3 receptor-expressing SK-N-MC cells; 0.8 nM [3H]-N-methylhistamine; 45 min at 25° C.; Ki=(IC50)/(1+([L]/(KD)). Here is the method: The histamine H3 receptor binding effectiveness of compounds of the present invention was determined using the human histamine H3 receptor, Lovenberg et al Mol. Pharmacol. 1999, 1107. Screening using the human receptor is particularly important for the identification of new therapies for the treatment of human disease. Prior binding assays, for example, relied on rat synaptosomes (Garbarg et al J. Pharmacol. Exp. Ther. 1992, 263, 304), rat cortical membranes (West et al Mol. Pharmacol. 1990, 610), and guinea pig brain (Korte et al Biochem. Biophys. Res. Commun. 1990, 978). A recent comparative study comparing human H3 receptor activity with H3 receptors from rodent and primate have shown significant differences in the respective pharmacology of the rodent and primate receptors to the human receptor. (West et al Eur. J. Pharmacol. 1999, 233; Lovenberg et al., J. Pharmacol. Exp. Ther. 2000, 293, 771-778.)
A 10 cm tissue culture dish with a confluent monolayer of SK-N-MC cells was split two days prior to transfection. Using sterile technique the media was removed and the cells were detached from the dish by the addition of trypsin. One fifth of the cells were then placed onto a new 10 cm dish. Cells were grown in a 37° C. incubator with 5% CO2 in Minimal Essential Media Eagle with 10% Fetal Bovine Serum. After two days cells were approximately 80% confluent. These were removed from the dish with trypsin and pelleted in a clinical centrifuge. The pellet was then re-suspended in 400 μL complete media and transferred to an electroporation cuvette with a 0.4 cm gap between the electrodes (Bio-Rad #165-2088). One μg supercoiled H3 receptor cDNA was added to the cells and mixed. The voltage for the electroporation was set at 0.25 kV, the capacitance is set at 960 μF. After electroporation the cells were diluted into 10 mL complete media and plated onto four 10 cm dishes. Because of the variability in the efficiency of electroporation four different concentrations of cells were plated. The ratios used were; 1:20, 1:10, 1:5, with the remainder of the cells being added to the fourth dish. The cells were allowed to recover for 24 h before adding the selection media (complete media with 600 μg/mL G418). After 10 days dishes were analyzed for surviving colonies of cells. Dishes with well isolated colonies were used. Cells from individual colonies were isolated and tested. SK-N-MC cells were used because they give efficient coupling for inhibition of adenylate cyclase. The clones that gave the most robust inhibition of adenylate cyclase in response to histamine were used for further study.
Cell pellets from histamine H3 receptor-expressing SK-N-MC cells were homogenized in 20 mM Tris HCl/0.5 mM EDTA. Supernatants from a 800 g spin were collected, recentrifuged at 30,000 g for 30 minutes. Pellets were re-homogenized in 50 mM Tris/5 mM EDTA (pH 7.4). Membranes were incubated with 0.8 nM [^3H]-N-methylhistamine plus/minus test compounds for 45 min at 25° C. and harvested by rapid filtration over GF/C glass fiber filters (pretreated with 0.3% polyethylenimine) followed by four washes with ice cold buffer. Filters were dried, added to 4 mL scintillation cocktail and then counted on a liquid scintillation counter. Non-specific binding was defined with 10 μM histamine. PKi values were calculated based on a KD of 800 pM and a ligand concentration ([L]) of 800 pM according to the formula: Ki=(IC50)/(1+([L]/(KD))
`CN(C)CCCSc1ncc(Cc2ccc(Cl)cc2)n1C` [{3-[5-(4-Chlorobenzyl)-1-methyl-1H-imidazol-2-ylsulfanyl]-propyl}-dimethyl-amine]: the Ki – broadly, a dissociation constant, usually derived from enzyme kinetics or from competition with a known ligand – was 22 nM.
`CC(C)N1CCC(COc2ncc(C(=O)c3ccc(F)cc3)n2C)CC1` [(4-Fluorophenyl)-[2-(1-isopropyl-piperidin-4-ylmethoxy)-3-methyl-3H-imidazol-4-yl]-methanone] showed a Ki of 2.5 nM.
`CN(C)CCCSc1ncc(C(=O)c2ccc(Cl)cc2)n1C` [(4-Chlorophenyl)-[2-(3-dimethylamino-propylsulfanyl)-3-methyl-3H-imidazol-4-yl]-methanone] yielded a Ki of 2 nM.
In turn, `CN(C)CCCSc1ncc(C(=O)c2ccccc2)n1C` [[2-(3-Dimethylamino-propylsulfanyl)-3-methyl-3H-imidazol-4-yl]-phenyl-methanone] showed an inhibition constant (Ki) of 4 nM.
Still for that read-out and setting: under `CC(C)N1CCC(Sc2ncc(C(=O)c3ccc(Cl)cc3)n2C)CC1` [(4-Chlorophenyl)-[2-(1-isopropyl-piperidin-4-ylsulfanyl)-3-methyl-3H-imidazol-4-yl]-methanone] stands 3 nM; under `CC(C)N1CCC(COc2ncc(C(=O)c3ccc(Cl)cc3)n2C)CC1` [(4-Chlorophenyl)-[2-(1-isopropylpiperidin-4-ylmethoxy)-3-methyl-3H-imidazol-4-yl]-methanone], 3.7 nM; under `CC(C)N1CCC(COc2ncc(C(=O)c3cc(Cl)cc(Cl)c3)n2C)CC1` [(3,5-Dichlorophenyl)-[2-(1-isopropyl-piperidin-4-ylmethoxy)-3-methyl-3H-imidazol-4-yl]-methanone], 4 nM.
Same read-out and setting: under `CN(C)CCCSc1ncc(C(=NO)c2ccc(Cl)cc2)n1C` (mixture of isomers) [(4-Chlorophenyl)-[2-(3-dimethylamino-propylsulfanyl)-3-methyl-3H-imidazol-4-yl]-methanone oxime] stands 3.2 nM; under `CN1CCC(Sc2ncc(C(=O)c3ccc(Cl)cc3)n2C)CC1` [(4-Chloro-phenyl)-[3-methyl-2-(1-methyl-piperidin-4-ylsulfanyl)-3H-imidazol-4-yl]-methanone], 7 nM.
The same measure, in the same setting: with `Cn1c(C(=O)c2cccc3ccccc23)cnc1OCCCN1CCCCC1` [[3-Methyl-2-(3-piperidin-1-yl-propoxy)-3H-imidazol-4-yl]-naphthalen-1-yl-methanone] the figure was 79 nM; with `Cn1c(C(=O)c2ccc(Cl)cc2)cnc1SCCCN1CCCCC1` [(4-Chlorophenyl)-[3-methyl-2-(3-piperidin-1-yl-propylsulfanyl)-3H-imidazol-4-yl]-methanone], 3.1 nM.
Compound `CN(C)CCCSc1ncc(C(=O)c2ccc(Br)cc2)n1C` [(4-Bromophenyl)-[2-(3-dimethylamino-propylsulfanyl)-3-methyl-3H-imidazol-4-yl]-methanone] registered a Ki of 1.6 nM.
The same measure, in the same setting: under `Cn1c(C(=O)c2ccc(Br)cc2)cnc1SCCCN1CCCCC1` [(4-Bromophenyl)-[3-methyl-2-(3-piperidin-1-yl-propylsulfanyl)-3H-imidazol-4-ylmethanone] stands 7.5 nM.
Compound `CC(C)N1CCC(COc2ncc(C(=O)c3ccc(C(F)(F)F)cc3)n2C)CC1` [[2-(1-Isopropyl-piperidin-4-ylmethoxy)-3-methyl-3H-imidazol-4-yl]-(4-trifluoromethyl-phenyl)-methanone] yielded a Ki of 4.1 nM.
For `Cn1c(CN2CCCCC2)cnc1OCCCN1CCCCC1` [[3-Methyl-2-(3-piperidin-1-yl-propoxy)-3H-imidazol-4-yl]-piperidin-1-yl-methane], the Ki was determined as 36.4 nM.
Still for that read-out and setting: under `CCC(C)N1CCC(COc2ncc(C(=O)c3ccc(Br)cc3)n2C)CC1` (stereo not shown) [(4-Bromophenyl)-[2-(1-sec-butyl-piperidin-4-ylmethoxy)-3-methyl-3H-imidazol-4-yl]-methanone] stands 9 nM; under `CCN1CCC(COc2ncc(C(=O)c3ccc(Br)cc3)n2C)CC1` [(4-Bromophenyl)-[2-(1-ethyl-piperidin-4-ylmethoxy)-3-methyl-3H-imidazol-4-yl]-methanone], 6.6 nM; under `CC(C)N1CCC(COc2ncc(C(=O)c3cccc(Cl)c3)n2C)CC1` [(3-Chlorophenyl)-[2-(1-isopropyl-piperidin-4-ylmethoxy)-3-methyl-3H-imidazol-4-yl]-methanone], 2.8 nM.
Same read-out and setting: with `CC(C)N1CCC(COc2ncc(C(O)c3ccc(C#N)cc3)n2C)CC1` (stereo not shown) [4-{Hydroxy-[2-(1-isopropyl-piperidin-4-ylmethoxy)-3-methyl-3H-imidazol-4-yl]-methyl}-benzonitrile] the figure was 7.6 nM; with `CC(C)N1CCC(COc2ncc(C(=O)c3ccc([N+](=O)[O-])cc3)n2C)CC1` [[2-(1-Isopropyl-piperidin-4-ylmethoxy)-3-methyl-3H-imidazol-4-yl]-(4-nitro-phenyl)-methanone], 4.6 nM; with `CN1CCCC1CCSc1ncc(C(=O)c2ccc(Cl)cc2)n1C` (stereo not shown) [(4-Chloro-phenyl)-{3-methyl-2-[2-(1-methyl-pyrrolidin-2-yl)-ethylsulfanyl]-3H-imidazol-4-yl}-methanone], 2 nM.
The same measure, in the same setting: under `CC(C)N1CCC(Oc2ncc(C(=O)c3ccc(Cl)cc3)n2C)CC1` [(4-Chlorophenyl)-[2-(1-isopropyl-piperidin-4-yloxy)-3-methyl-3H-imidazol-4-yl]-methanone] stands 25 nM; under `CN(C)CCC[S+]([O-])c1ncc(C(=O)c2ccc(Cl)cc2)n1C` (stereo not shown) [(4-Chloro-phenyl)-[2-(3-dimethylamino-propane-1-sulfinyl)-3-methyl-3H-imidazol-4-yl]-methanone], 315 nM; under `CN(C)CCSc1ncc(C(=O)c2ccc(Cl)cc2)n1C` [(4-Chloro-phenyl)-[2-(2-dimethylamino-ethylsulfanyl)-3-methyl-3H-imidazol-4-yl]methanone], 98 nM.
For `CC(C)N1CCC(COc2ncc(C(=O)c3ccccc3Cl)n2C)CC1` [(2-Chlorophenyl)-[2-(1-isopropyl-piperidin-4-ylmethoxy)-3-methyl-3H-imidazol-4-yl]-methanone], the Ki is 1.3 nM.
On the same count and under the same terms, under `CC(C)N1CCC(COc2ncc(C(=O)c3ccc(Br)cc3)n2C)CC1` [(4-Bromophenyl)-[2-(1-isopropyl-piperidin-4-ylmethoxy)-3-methyl-3H-imidazol-4-yl]-methanone] stands 5.3 nM.

The experiment is the same for the next values; noted with them: value printed in text of Example XVI Step B, no unit at the place.
In the case of `Cn1c(C(=O)c2ccc(Cl)cc2)cnc1S(=O)(=O)CCC[N+](C)(C)[O-]`, affinity was put at a Ki of 10000 nM.
On the same count and under the same terms, under `CN(C)CCCS(=O)(=O)c1ncc(C(=O)c2ccc(Cl)cc2)n1C` [(4-Chlorophenyl)-[2-(3-dimethylamino-propane-1-sulfonyl)-3-methyl-3H-imidazol-4-yl]-methanone] stands 10000 nM.
